Results as given in ChEMBL document CHEMBL5154891, “Discovery of AZD4625, a Covalent Allosteric Inhibitor of the Mutant GTPase KRASG12C” (J Med Chem, 2022).
Active and inactive are the calls of the source. The calls are words filed in the database; no cut-off is given here.

How the values were obtained:
GTPase KRas = GTPase KRas (Homo sapiens, UniProt P01116, G12C); assay: Inhibition of C-terminal Avi and 6His-tagged human KRAS 2B G12C mutant (1 to 166 residues) expressed in Escherichia coli BL21 (DE3) assessed as inhibition of SOS mediated nucleotide exchange preincubated for 4 hrs followed by SOS1 addition by HTRF assay
[1] = Lipophilicity, log D of the compound at pH 7.4; conditions: buffer, pH 7.4, logD
in vitro = conditions: human, liver microsomes, CLH
[2] = Bioavailability in Han Wistar rat at 2 micromol/kg, po and 1 umol/kg, iv; type: ADME, organism-based; conditions: in vivo; for bioavailability: Han Wistar, 2 µmol/kg
[3] = Metabolic stability in rat hepatocytes assessed as intrinsic clearance per 10^6 cells at 5 uM measured after 60 mins by UHPLC/UV/MS/MS; type: ADME, cell-based, Hepatocyte; conditions: for hepatocyte CLint at 5 µM: read-out: CLH
[4] = Stability in monkey whole blood; type: ADME, tissue-based, Macaca mulatta; conditions: rhesus monkey
[5] = Stability in mouse whole blood; type: ADME, tissue-based
[6] = Stability in rat whole blood; type: ADME, tissue-based
[7] = Stability in dog whole blood; type: ADME, tissue-based, Canis lupus familiaris
[8] = Inhibition of spheroid proliferation in human NCI-H358 cells harboring KRAS G12C mutant measured after 6 days by CellTiter-Glo assay; type: functional, cell-based; conditions: NCI-H358, 144 h
[9] = Drug metabolism in human hepatocyte assessed as oxidative metabolism; type: ADME, cell-based; conditions: hepatocytes, 1 h, time 60 min
[10] = Metabolic stability in human Hepatocyte assessed as intrinsic clearance measured per 10^6 cells; type: ADME, cell-based; conditions: hepatocytes, read-out: CLH
[11] = Hepatic blood flow in CD-1 mouse; type: ADME
[12] = target: Elongation factor 2 (Homo sapiens) (UniProt P13639); assay: Binding affinity to EEF2 in human […] cell lysate assessed as trypsin-mediated biotinylated cysteine residues digestion by measuring reduction in protein level at 4 uM pretreated for 2 hrs followed by labelled with iodoacetamide-desthiobiotin by MS analysis relative to control; type: subcellular; conditions: NCI-H358
[13] = Toxicity in athymic nude-Foxn1nu mouse xenografted with human MIA PaCa-2 cells assessed as tolerability at 4 to 100 mg/kg, po administered for 21 days; type: organism-based; conditions: in vivo, 504 h, dose 4-100 mg/kg, time 21 day
Mus musculus = assay: In vivo inhibition of RAS/MAPK pathway in human MIA PaCa-2 cells harbouring KRAS G12C mutant xenografted in athymic nude Foxn1 nu mouse assessed as reduction in DUSP6 expression measured at 3 to 6 hrs post dose; type: functional; conditions: dose 4-100 mg/kg, time 3-6 hrs, DDE = dose-dependent effect
[14] = target: T1, Ribosomal protein S6 kinase alpha-1 (Homo sapiens, UniProt Q15418); assay: Inhibition of p90RSK phosphorylation in human PC-9 cells measured for 2 hrs by immunofluorescence assay; type: cell-based
[15] = target: Ribosomal protein S6 kinase alpha-1 (Homo sapiens, UniProt Q15418, G12C); assay: Inhibition of p90RSK phosphorylation in human NCI-H358 cells harboring KRAS G12C mutant measured for 2 hrs by immunofluorescence assay; type: cell-based
[16] = target: T1, Ribosomal protein S6 kinase alpha-1; assay: Inhibition of p90RSK phosphorylation in human Calu-6 cells harboring KRAS Q61K measured for 2 hrs by immunofluorescence assay; type: cell-based
[17] = target: T2, Oxidation resistance protein 1 (Homo sapiens) (UniProt Q8N573); assay: Binding affinity to OXR1 in human […] cell lysate assessed as trypsin-mediated biotinylated cysteine residues digestion by measuring reduction in protein level at 4 uM pretreated for 2 hrs followed by labelled with iodoacetamide-desthiobiotin by MS analysis relative to control; type: subcellular; conditions: NCI-H358
T2 sequence (whole entry): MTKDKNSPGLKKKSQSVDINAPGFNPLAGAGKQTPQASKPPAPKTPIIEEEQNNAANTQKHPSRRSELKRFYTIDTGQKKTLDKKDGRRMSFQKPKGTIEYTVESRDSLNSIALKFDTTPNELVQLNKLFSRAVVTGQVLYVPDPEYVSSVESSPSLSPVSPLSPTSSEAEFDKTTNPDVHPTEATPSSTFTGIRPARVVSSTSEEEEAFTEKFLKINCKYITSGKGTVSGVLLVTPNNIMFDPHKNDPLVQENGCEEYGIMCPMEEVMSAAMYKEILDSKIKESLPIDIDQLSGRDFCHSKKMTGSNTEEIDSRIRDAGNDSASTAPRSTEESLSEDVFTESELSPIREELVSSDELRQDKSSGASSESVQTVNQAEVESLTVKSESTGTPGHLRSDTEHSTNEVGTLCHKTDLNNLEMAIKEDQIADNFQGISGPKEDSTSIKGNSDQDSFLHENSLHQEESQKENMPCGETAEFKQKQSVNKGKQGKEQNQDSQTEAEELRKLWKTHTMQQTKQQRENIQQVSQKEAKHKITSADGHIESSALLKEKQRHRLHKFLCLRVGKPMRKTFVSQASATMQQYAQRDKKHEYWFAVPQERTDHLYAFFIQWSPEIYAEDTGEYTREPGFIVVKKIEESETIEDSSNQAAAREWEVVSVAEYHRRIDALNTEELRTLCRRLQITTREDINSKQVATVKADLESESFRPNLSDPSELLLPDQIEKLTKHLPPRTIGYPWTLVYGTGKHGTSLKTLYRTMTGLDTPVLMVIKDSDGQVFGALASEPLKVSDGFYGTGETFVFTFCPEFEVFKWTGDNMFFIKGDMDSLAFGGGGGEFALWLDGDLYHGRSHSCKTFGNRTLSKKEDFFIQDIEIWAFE

MIA PaCa-2 = assay: Antitumor activity against human MIA PaCa-2 cells harbouring KRAS G12C mutant xenografted in athymic nude Foxn1 nu mouse assessed as tumor regression at 100 mg/kg, po administered daily for 21 days and measured twice weekly by caliper analysis; type: functional, organism-based; conditions: time 21.0 day
[18] = Hepatic blood flow in Wistar Han rat; type: ADME
[19] = Hepatic blood flow in Beagle dog; type: ADME, Canis lupus familiaris
A549 = assay: Inhibition of spheroid proliferation in human A549 cells […] measured after 6 days by CellTiter-Glo assay; type: functional, cell-based; conditions: A549, 144 h

Row | SMILES | IC50 (GTPase KRas) | logD [1] | microsomal CLint at 1 h, 5 µM (in vitro) | bioavailability [2] | hepatocyte CLint at 5 µM [3] | also measured
1 | C=CC(=O)N1C[C@H]2COc3c(Cl)c(-c4c(O)cccc4F)c(F)c4ncnc(c34)N2C[C@H]1C (stereo in doubt; 30) | 117 nM | 3.2 | 24 µL/min/mg | 28% | 64 µL/min/1e6 cells | –
2 | C=CC(=O)N1C[C@H]2COc3c(Cl)c(-c4c(O)cccc4F)c(F)c4ncnc(c34)N2C[C@@H]1C | 135 nM | 3.4 | 110 µL/min/mg | 31% | 238 µL/min/1e6 cells | –
3 | C=CC(=O)N1CCN2c3ncnc4cc(-c5c(C)ccc6[nH]ncc56)c(Cl)c(c34)OC[C@H]2C1 (atropisomer aR) | 171 nM | – | – | – | – | –
4 | C=CC(=O)N1CCN2c3ncnc4cc(-c5c(C)ccc6[nH]ncc56)c(Cl)c(c34)OC[C@@H]2C1 (atropisomer aS) | – | – | 58 µL/min/mg | – | 109 µL/min/1e6 cells | –
5 | C=CC(=O)N1CCN2c3ncnc4c(F)c(-c5c(O)cccc5F)c(Cl)c(c34)OC[C@@H]2C1 | 19 nM | 2.9 | 13 µL/min/mg | 0% | 79 µL/min/1e6 cells | Stability [4]: Unstable; Stability [5]: Unstable; Stability [6]: Unstable; Stability [7]: Unstable
6 | C=CC(=O)N1CCN2c3ncnc4cc(-c5c(C)ccc6[nH]ncc56)c(Cl)c(c34)OCC[C@@H]2C1 (single isomer, unassigned; atropisomer 1) | 15500 nM | 3.4 | 192 µL/min/mg | – | 50 µL/min/1e6 cells | –
7 | C=CC(=O)N1CCN2c3ncnc4cc(-c5c(C)ccc6[nH]ncc56)c(Cl)c(c34)OC[C@@H]2C1 (single isomer, unassigned; atropisomer 2) | 27100 nM | – | – | – | – | –
8 | C=CC(=O)N1C[C@H]2COc3c(Cl)c(-c4c(O)cccc4F)c(F)c4ncnc(c34)N2C[C@H]1C (stereo in doubt; 32) | 64 nM | – | – | – | – | GI50 ([8]; time 6 day): 284 nM; F ([2]; po, at 2 µmol/kg): 31%; CLint_hep ([3]; 1 h, 5 µM): 43 uL/min/1e6 cells
9 | C=CC(=O)N1CCN2c3ncnc4cc(-c5c(C)ccc6[nH]ncc56)c(Cl)c(c34)OCC[C@H]2C1 (single isomer, unassigned; atropisomer 2) | 9 nM | 3.4 | 189 µL/min/mg | 16% | 46 µL/min/1e6 cells | Drug metabolism [9]: Metabolite_Detected; hepatocyte CLint [10]: 20 µL/min/1e6 cells
10 | C=CC(=O)N1CCN2c3ncnc4c(F)c(-c5c(O)cccc5F)c(Cl)c(c34)OCC[C@H]2C1 | < 5 nM | 2.7 | 66 µL/min/mg | 36% | 99 µL/min/1e6 cells | hepatocyte CLint [10]: 12 µL/min/1e6 cells
11 | C=CC(=O)N1CCN2c3ncnc4cc(-c5c(C)ccc6[nH]ncc56)c(Cl)c(c34)OC[C@H]2C1 (single isomer, unassigned; atropisomer 2) | 17800 nM | – | – | – | – | –
12 | C=CC(=O)N1CCN(c2ncnc3cc(-c4c(C)ccc5[nH]ncc45)c(Cl)cc23)CC1 | – | 3.5 | 38 µL/min/mg | – | 56 µL/min/1e6 cells | –
13 | C=CC(=O)N1C[C@@H]2CCOc3c(Cl)c(-c4c(O)cccc4F)c(F)c4ncnc(c34)N2C[C@H]1C | 3 nM | 3.2 | 28 µL/min/mg | 75% | 40 µL/min/1e6 cells | QH [11]: 152 mL/min/kg; IC50 [8]: 4.1 nM; Activity [12]: Active; Activity [13]: Non-Toxic; Activity (Mus musculus): Dde; IC50 [14]: 4950 nM; IC50 [15]: 36 nM; IC50 [16]: > 30000 nM; Activity [17]: Active; hepatocyte CLint [10]: < 2 µL/min/1e6 cells; Activity (MIA PaCa-2): Active; QH [18]: 72 mL/min/kg; QH [19]: 55 mL/min/kg; IC50 (A549): 1670 nM
14 | C=CC(=O)N1C[C@@H]2CCOc3c(Cl)c(-c4c(O)cccc4F)c(F)c4ncnc(c34)N2C[C@@H]1C | 138 nM | 3.2 | 203 µL/min/mg | 51% | 143 µL/min/1e6 cells | –
